# Data taken from patent US20070141635A1, “Novel translocation assay” (priority 2003, published 2007).
# Columns and labels:
# [1] = test system: GLUT1; conditions: Perini et al., Diabetes 53:41-52, 2004; cited from earlier work
# [2] = test system: GLUT4; conditions: cited from earlier work
# [3] = test system: 3T3-L1 adipocytes expressing HA-GLUT4 WT; experiment: Continuous anti-HA antibody uptake (GLUT4 recycling) experiment; format: cell-based
# Description: For continuous antibody uptake experiments, cells were incubated for 20 min with or without insulin, whereafter anti-HA (50 μg/ml) or non-relevant antibody was added. Cells that were used to determine the total amount of HA-GLUT4 were not incubated with antibody during this 37° C. incubation. After incubation, the cells were fixed and quenched as described above, and incubated for 20 min with 5% NSS and 0.1% saponin. Cells that were used to determine the total cellular amount of HA-GLUT4 were incubated for 60 min with anti-HA antibody or control antibody in PBS containing 2% NSS. All other cells were incubated with 2% NSS without antibody. Subsequently, the cells were incubated with ALEXA488-conjugated goat-anti-mouse antibody and ALEXA594-conjugated WGA, washed and analysed. The amount of specific anti-HA uptake was expressed as a percentage of total cellular immuno-reactive HA-GLUT4.
# To analyze the exchange of GLUT4 with the cell surface under steady state conditions, studies were performed in which live cells were incubated with anti-HA antibody at 37° C. (FIG. 5). […] 3T3-L1 adipocytes expressing HA-GLUT4 WT were stimulated for 2 h with 200 nM insulin in the presence of anti-HA antibody, washed extensively, incubated for 2 h without insulin and anti-HA, and incubated for a further 20 min in the absence (FIG. 5C) or presence (FIG. 5D) of 200 nM insulin.
# For quantification of anti-HA antibody uptake, cells were preincubated for 20 min in the presence or absence of insulin after which anti-HA antibody or control antibody was added for various times (FIG. 5E). Antibody uptake was determined by labeling cells with fluorescent secondary antibody after fixation. Antibody uptake was expressed as a percentage of post-fixation anti-HA labeling.
# To study this non-recycling GLUT4 pool in adipocytes, 3T3-L1 adipocytes expressing HA-GLUT4 WT were incubated at 37° C. in the continuous presence of anti-HA antibody. Cells were incubated with or without 200 nM insulin for 20 min, after which anti-HA antibody was added in the continued presence or absence of insulin. Cells were incubated further for up to 180 min, fixed, permeablilized, and incubated with fluorescent secondary antibody. The level of anti-HA antibody taken up by the cells was then expressed as a percentage of total post-fixation anti-HA labeling of permeablilized cells.
# [4] = test system: 3T3-L1 adipocytes expressing HA-GLUT4 WT; experiment: Inducing GLUT4 translocation with insulin followed by sucrose; format: cell-based; conditions: 0.3 or 0.6M sucrose for 2 hours after 20 minutes 200 nM insulin; serum free
# Description: 3T3-L1 adipocytes expressing HA-GLUT4 WT were serum starved for 2 hours at 37° C. Following 20 minutes insulin stimulation with 200 nM insulin, cells were incubated for additional 2 hours in serum free medium supplemented with 0.2% BSA and 0.3 or 0.6M sucrose. After post-fixation anti-HA immunolabeling the level of cell surface HA-GLUT4 levels was determined as a percentage of total HA-GLUT4 detected after cell lysis. […] Furthermore, increasing concentrations of sucrose induce more GLUT4 to translocate to the plasma membrane in the presence of reduced levels of insulin.
# [5] = test system: HA-GLUT4 expressing 3T3-L1 adipocytes; experiment: Model of insulin resistance (chronic insulin stimulation, then acute insulin); format: cell-based; conditions: for level of GLUT4 at the plasma membrane after chronic insulin: FIG. 12A
# Description: 3T3-L1 adipocytes retrovirally infected with GLUT4 (described in Example 1) were incubated 24 hours or 48 hours either with 600 nM insulin or with medium alone. After this chronic insulin stimulation (as indicated in FIG. 10) at 37° C. in a CO2 incubator, cells were washed and 200 nM insulin was added for additional 10 or 30 minutes. Cell surface levels of HA-GLUT4 were measured using the fluorescence based assay described supra and expressed as a percentage of total HA-GLUT4 detected in the cell. The experiment was also performed with the HA-GLUT4 TAIL mutant
# HA-GLUT4 expressing 3T3-L1 adipocytes were grown in 96 well plates, incubated for 2 hours or overnight in medium supplemented with 10% fetal calf serum or no serum. 200 nM insulin in case of acute stimulation and 600 nM insulin in case of chronic stimulation have been used. After overnight stimulation cells were washed and 200 nM fresh insulin was added for 10 or 30 mln.
# [6] = test system: 3T3-L1 adipocytes expressing HA-GLUT4; experiment: Single cycle GLUT4 internalization experiment; format: cell-based
# Description: For single cycle internalization experiments cells were stimulated for 20 min with 200 nM insulin after starvation and washed on ice with ice-cold DMEM containing 20 mM HEPES pH 7.4 and 0.2% BSA. Cells were incubated with 100 nM wortmannin or 200 nM insulin and either anti-HA (25 μg/ml) or non-relevant antibody (MOPC21) in DMEM/HEPES/BSA for 1 h on ice. Wortmanin was added to abolish insulin signaling. […] Cells were washed extensively, then either 100 nM wortmanin or 200 nM insulin in DMEM/HEPES/BSA was added. The plate was then transferred to 37° C. and at different times, formaldehyde was added to the wells to a concentration of 3%. After 5 min the formaldehyde was washed away and residual amounts were quenched. The cells were incubated for 20 min with 5% NSS in the absence of saponin, labeled with ALEXA488-conjugated goat-anti-mouse antibody and ALEXA594-conjugated WGA, washed and analysed as described above.
# GLUT4 WT molecules that were labeled with anti-HA antibody on ice were rapidly cleared from the cell surface as indicated by the disappearance of GLUT4 at early time points after transfer of the cells from ice to 37° C. (FIG. 4). After approximately 5 min the level of GLUT4 at the PM reached steady state in the presence but not in the absence of insulin, indicating recycling of GLUT4 back to the PM in insulin-stimulated cells. […]
# [7] = test system: HA-GLUT4-expressing 3T3-L1 adipocytes; experiment: Fluorescence-based HA-GLUT4 translocation assay (GLUT4 at plasma membrane as percentage of total) in adipocytes; format: cell-based
# Description: Retrovirally-transduced fibroblasts expressing HA-tagged GLUT 4 or a mutant therof were differentiated into adipocytes essentially as described above. These adipocytes were then subcultured for 30 hours. Insulin was then added at different time points, after which the cells were fixed in 3% formaldehyde. After washing and quenching with 50 mM glycine, cells were incubated for 20 min with 5% normal swine serum (NSS) in the absence or presence of 0.1% saponin to analyse the level of GLUT4 at the plasma membrane (PM) or the total cellular GLUT4 content, respectively. Cells were incubated for 60 min with a saturating concentration of either an antibody directed against the HA tag or a control non-relevant antibody (mouse IgG MOPC21) in PBS containing 2% NSS. After extensive washing, the cells were incubated for 20 min with 5% NSS in the presence or absence of 0.1% saponin to permeabilize all cells. Cells were incubated for 60 min with saturating concentrations of ALEXA488-conjugated goat-anti-mouse antibody (20 μg/ml) and ALEXA594-conjugated WGA (10 μg/ml) in PBS containing 2% NSS. After washing, fluorescence ([…]) was measured using the bottom-reading mode in a fluorescence microtiter plate reader (FLUOstar Galaxy, BMG Labtechnologies, Offenburg, Germany). The percentage of GLUT4 at the PM was calculated for each condition. ALEXA594-WGA fluorescence was used to correct for variation in cell density in each well.
# To determine the extent of insulin-induced GLUT4 translocation using the assay described supra, HA-GLUT4-expressing 3T3-L1 adipocytes grown in 96 well plates were incubated for 2 h in the absence of serum, whereafter 200 nM insulin was added at various time points and cell surface levels of HA-GLUT4 were analysed by indirect immunofluorescence labeling (FIG. 2B). Saturating levels of anti-HA and secondary antibodies were used to ensure that substantially all HA-GLUT4 molecules were labeled. A non-relevant antibody was used at the same concentration to determine the non-specific binding of the anti-HA antibody. Insulin stimulated the appearance of HA-GLUT4 at the PM with a half-time of about 2.5 min reaching a plateau by 12 min which was maintained for at least 60 min. No specific anti-HA labeling was detected in non-infected cells (FIG. 2A).
# [8] = test system: 3T3-L1 fibroblasts expressing HA-tagged GLUT4; experiment: Fluorescence-based HA-GLUT4 translocation assay in fibroblasts; format: cell-based
compound,measurement,setting,value
"C[C@]12CC[C@H](O)CC1=CC[C@@H]1[C@@H]2CC[C@]2(C)C(=O)CC[C@@H]12 [DHEA, Dehydroepiandrosterone]",effect on levels of GLUT1 at the plasma membrane,[1],enhance levels of GLUT1 at the plasma membrane
"CO[C@@H]1C[C@@H](C[C@H]2CC[C@H](C)[C@H]([C@@H](C)C(=O)O)O2)O[C@]2(O[C@](C)([C@H]3CC[C@@](C)([C@@H]4O[C@@H]([C@H]5O[C@@](O)(CO)[C@H](C)C[C@@H]5C)C[C@@H]4C)O3)C[C@H]2C)[C@@H]1C [Nigericin, nigericin]",effect on insulin mediated GLUT4 translocation,"[2]; Chu et al., J Cell Biochem. 2002;85:83-91",inhibit insulin mediated GLUT4 translocation
C[C@@H]1C[C@@H]([C@H](O)CC2CC(=O)NC(=O)C2)C(=O)[C@@H](C)C1 [cycloheximide],GLUT4 that could not be labeled during antibody uptake,"[3]; 10 mg/ml cycloheximide for 2 h prior to the addition of antibody, FIG. 6F",30%
OC[C@H]1O[C@@](CO)(O[C@H]2O[C@H](CO)[C@@H](O)[C@H](O)[C@H]2O)[C@@H](O)[C@@H]1O [sucrose],level of HA-GLUT4 translocated to the plasma membrane,[4],dramatically increases
insulin,levels of GLUT4 translocation after chronic insulin,"[5]; 600 nM insulin 24 or 48 h in the absence of serum (-serum or KRP), then 200 nM insulin",little more than basal levels
same,level of GLUT4 at the plasma membrane after chronic insulin,[5]; 600 nM insulin 24 h in the presence of serum,dramatically increased
same,level of GLUT4 at the plasma membrane after chronic insulin,[5]; 600 nM insulin 48 h in the presence of serum,suppressed
same,effect on GLUT4 internalization rate,"[6]; 200 nM insulin versus 100 nM wortmannin (basal), GLUT4 WT and TAIL",unaffected
same,time until level of GLUT4 at the PM reached steady state,"[6]; in the presence of 200 nM insulin, after transfer from ice to 37° C.",approximately 5 min
same,time for which plateau of HA-GLUT4 at the PM was maintained,[7]; 200 nM insulin,at least 60 min
same,time to plateau of HA-GLUT4 at the PM,[7]; 200 nM insulin after 2 h in the absence of serum,≤ 12 min
same,half-time of appearance of HA-GLUT4 at the PM,"[7]; 200 nM insulin after 2 h in the absence of serum, 96 well plates",about 2.5 min
same,effect of long-term insulin treatment on cell surface HA-GLUT4 levels,"[7]; 200 nM insulin for up to 3 hours, FIG. 6H",did not drastically down-regulate cell surface GLUT4 levels
same,level of GLUT4 at the PM as percentage of total specific fluorescence,"[7]; 200 nM insulin, basal value 4%",34%
same,increase in cell surface GLUT4 levels in response to insulin stimulation,"[7]; adipocytes, 200 nM insulin",~8 fold
same,HA-GLUT4 expressed in the cell that did not translocate to the membrane during the experiment,"[3]; 200 nM insulin, up to 180 min",approximately 30%
same,"HA-GLUT4 labeled by anti-HA antibody uptake, percentage of total post-fixation labeling","[3]; 200 nM insulin, up to 180 min, FIG. 6A",approximately 30%
same,size of the recycling pool of GLUT4,"[3]; different doses of insulin, FIG. 8",incrementally increased with increasing doses
same,time to maximum level of surface GLUT4,[8]; followed by rapid reduction,6 min
same,increase in surface GLUT4 above non-stimulated cells,[8]; maximum level,5 fold
"margatoxin (TIINVKCTSPKQCLPPCKAQFGQSAGAKCMNGKCKCYPH; UniProt P40755 1-39, looked up)",effect on level of GLUT4 translocated to the plasma membrane,"[2]; suppression of Kv1.3 activity, Xu et al, Proc Natl Acad Sci USA. 101:3112-3117, 2004",increase the level of GLUT4 translocated to the plasma membrane
